Test results from PubChem BioAssay AID2060893 (Molecular Pharmacology Branch, DTP, NCI, 2025).
Values belong to the compound of their own block, whether it stands above or below them.

Tested on: K86415-001-R-J1-PDC complex spheroids, viability
Test: Anticancer human tumor K86415-001-R-J1-PDC patient-derived lung adenocarcinoma cell line growth inhibition [RAS]
Details: for IC50: curve of first compound; for viability, T/C: stronger effect = lower value
Method in brief: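 Tumour cells grown as complex spheroids with HUVEC endothelial cells and mesenchymal stem cells, treated with RAS pathway inhibitor combinations. Each agent spans half-log steps from near clinical Cmax, or 10 microM where Cmax is unknown.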

[1] = second compound 0.000949 µM, first compound 0.0316 µM
[2] = second compound 0.000949 µM, first compound 0.1 µM
[3] = second compound 0.000949 µM, first compound 0.316 µM
[4] = second compound 0.000949 µM, first compound 1 µM
[5] = second compound 0.003 µM, first compound 0.0316 µM
[6] = second compound 0.003 µM, first compound 0.1 µM
[7] = second compound 0.003 µM, first compound 0.316 µM
[8] = second compound 0.003 µM, first compound 1 µM
[9] = second compound 0.00949 µM, first compound 0.0316 µM
[10] = second compound 0.00949 µM, first compound 0.1 µM
[11] = second compound 0.00949 µM, first compound 0.316 µM
[12] = second compound 0.00949 µM, first compound 1 µM
[13] = second compound 0.03 µM, first compound 0.0316 µM
[14] = second compound 0.03 µM, first compound 0.1 µM
[15] = second compound 0.03 µM, first compound 0.316 µM
[16] = second compound 0.03 µM, first compound 1 µM
[17] = second compound 0.0949 µM, first compound 0.0316 µM
[18] = second compound 0.0949 µM, first compound 0.1 µM
[19] = second compound 0.0949 µM, first compound 0.316 µM
[20] = second compound 0.0949 µM, first compound 1 µM
[21] = second compound 0.3 µM, first compound 0.0316 µM
[22] = second compound 0.3 µM, first compound 0.1 µM
[23] = second compound 0.3 µM, first compound 0.316 µM
[24] = second compound 0.3 µM, first compound 1 µM
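Also: spheroids exposed to agents for seven days before readout.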

- IC50 (second compound 0.000949 µM): < 31.6 nM
- IC50 (second compound 0.003 µM): < 31.6 nM
- IC50 (second compound 0.00949 µM): < 31.6 nM
- IC50 (second compound 0.03 µM): < 31.6 nM
- IC50 (second compound 0.0949 µM): < 31.6 nM
- IC50 (second compound 0.3 µM): < 31.6 nM
Structure (SMILES): C[C@@H](NC(=O)c1ncnc(N)c1Cl)c1ncc(C(=O)Nc2cc(C(F)(F)F)c(Cl)cn2)s1 + CCn1c(-c2cccnc2C(C)OC)c2c3cc(ccc31)N1CCOC(CC(NC(=O)C(C(C)C)N(C)C(=O)C3(F)CCN(C(=O)C#CC(C)(C)N(C)C)CC3)C(=O)N3CCCC(N3)C(=O)OCC(C)(C)C2)C1
- viability, T/C [1]: 44.6%
- viability, T/C [2]: 55.7%
- viability, T/C [3]: 35.6%
- viability, T/C [4]: 56.4%
- viability, T/C (second compound 0.000949 µM, first compound 3.16 µM): 45.2%
- viability, T/C (second compound 0.000949 µM, first compound 10 µM): 21.5%
- viability, T/C [5]: 18.7%
- viability, T/C [6]: 15.2%
- viability, T/C [7]: 16.7%
- viability, T/C [8]: 16.3%
- viability, T/C (second compound 0.003 µM, first compound 3.16 µM): 16.3%
- viability, T/C (second compound 0.003 µM, first compound 10 µM): 12.6%
- viability, T/C [9]: 14.2%
- viability, T/C [10]: 14%
- viability, T/C [11]: 13.8%
- viability, T/C [12]: 14.1%
- viability, T/C (second compound 0.00949 µM, first compound 3.16 µM): 12.6%
- viability, T/C (second compound 0.00949 µM, first compound 10 µM): 13.3%
- viability, T/C [13]: 14.6%
- viability, T/C [14]: 14.2%
- viability, T/C [15]: 17%
- viability, T/C [16]: 16.4%
- viability, T/C (second compound 0.03 µM, first compound 3.16 µM): 13.6%
- viability, T/C (second compound 0.03 µM, first compound 10 µM): 12.3%
- viability, T/C [17]: 12.1%
- viability, T/C [18]: 14.3%
- viability, T/C [19]: 12.7%
- viability, T/C [20]: 14.5%
- viability, T/C (second compound 0.0949 µM, first compound 3.16 µM): 13.6%
- viability, T/C (second compound 0.0949 µM, first compound 10 µM): 13.8%
- viability, T/C [21]: 12%
- viability, T/C [22]: 13.5%
- viability, T/C [23]: 14.9%
- viability, T/C [24]: 15.3%
- viability, T/C (second compound 0.3 µM, first compound 3.16 µM): 13.8%
- viability, T/C (second compound 0.3 µM, first compound 10 µM): 13.1%

- IC50 (second compound 0.000949 µM): < 3.16 nM
- IC50 (second compound 0.003 µM): < 3.16 nM
- IC50 (second compound 0.00949 µM): < 3.16 nM
- IC50 (second compound 0.03 µM): < 3.16 nM
- IC50 (second compound 0.0949 µM): < 3.16 nM
- IC50 (second compound 0.3 µM): < 3.16 nM
Structure (SMILES): O=C(c1ccc(F)c(F)c1Nc1ccc(I)cc1F)N1CC(O)([C@@H]2CCCCN2)C1 + CCn1c(-c2cccnc2C(C)OC)c2c3cc(ccc31)N1CCOC(CC(NC(=O)C(C(C)C)N(C)C(=O)C3(F)CCN(C(=O)C#CC(C)(C)N(C)C)CC3)C(=O)N3CCCC(N3)C(=O)OCC(C)(C)C2)C1
- viability, T/C (second compound 0.000949 µM, first compound 0.00316 µM): 33.7%
- viability, T/C (second compound 0.000949 µM, first compound 0.01 µM): 29.1%
- viability, T/C [1]: 11.7%
- viability, T/C [2]: 15.2%
- viability, T/C [3]: 6.3%
- viability, T/C [4]: 2.8%
- viability, T/C (second compound 0.003 µM, first compound 0.00316 µM): 11.8%
- viability, T/C (second compound 0.003 µM, first compound 0.01 µM): 8.85%
- viability, T/C [5]: 7.64%
- viability, T/C [6]: 7.02%
- viability, T/C [7]: 4.31%
- viability, T/C [8]: 2.26%
- viability, T/C (second compound 0.00949 µM, first compound 0.00316 µM): 11.9%
- viability, T/C (second compound 0.00949 µM, first compound 0.01 µM): 9.16%
- viability, T/C [9]: 7.57%
- viability, T/C [10]: 6.25%
- viability, T/C [11]: 3.49%
- viability, T/C [12]: 2.55%
- viability, T/C (second compound 0.03 µM, first compound 0.00316 µM): 10.5%
- viability, T/C (second compound 0.03 µM, first compound 0.01 µM): 8.81%
- viability, T/C [13]: 12.8%
- viability, T/C [14]: 7.27%
- viability, T/C [15]: 2.71%
- viability, T/C [16]: 2.49%
- viability, T/C (second compound 0.0949 µM, first compound 0.00316 µM): 11.1%
- viability, T/C (second compound 0.0949 µM, first compound 0.01 µM): 9.53%
- viability, T/C [17]: 8.98%
- viability, T/C [18]: 6.47%
- viability, T/C [19]: 2.33%
- viability, T/C [20]: 1.78%
- viability, T/C (second compound 0.3 µM, first compound 0.00316 µM): 12.8%
- viability, T/C (second compound 0.3 µM, first compound 0.01 µM): 11%
- viability, T/C [21]: 8.71%
- viability, T/C [22]: 5.63%
- viability, T/C [23]: 2.69%
- viability, T/C [24]: 2.11%

- IC50 (second compound 0.00316 µM): < 3.16 nM
- IC50 (second compound 0.01 µM): < 3.16 nM
- IC50 (second compound 0.0316 µM): < 3.16 nM
- IC50 (second compound 0.1 µM): < 3.16 nM
- IC50 (second compound 0.316 µM): < 3.16 nM
- IC50 (second compound 1 µM): < 3.16 nM
Structure (SMILES): CCN1CCN(Cc2ccc(Nc3ncc(F)c(-c4cc(F)c5nc(C)n(C(C)C)c5c4)n3)nc2)CC1 + C=CC(=O)N1CCN(c2nc(OCC3CCCN3C)nc3c(F)c(-c4nc(N)cc(C)c4C(F)(F)F)c(Cl)cc23)C(C)C1
- viability, T/C (second compound 0.00316 µM, first compound 0.00316 µM): 17.1%
- viability, T/C (second compound 0.00316 µM, first compound 0.01 µM): 15.9%
- viability, T/C (second compound 0.00316 µM, first compound 0.0316 µM): 13.3%
- viability, T/C (second compound 0.00316 µM, first compound 0.1 µM): 15%
- viability, T/C (second compound 0.00316 µM, first compound 0.316 µM): 18.7%
- viability, T/C (second compound 0.00316 µM, first compound 1 µM): 33.9%
- viability, T/C (second compound 0.01 µM, first compound 0.00316 µM): 10.3%
- viability, T/C (second compound 0.01 µM, first compound 0.01 µM): 11.2%
- viability, T/C (second compound 0.01 µM, first compound 0.0316 µM): 12.3%
- viability, T/C (second compound 0.01 µM, first compound 0.1 µM): 10.7%
- viability, T/C (second compound 0.01 µM, first compound 0.316 µM): 13.3%
- viability, T/C (second compound 0.01 µM, first compound 1 µM): 24.8%
- viability, T/C (second compound 0.0316 µM, first compound 0.00316 µM): 9.79%
- viability, T/C (second compound 0.0316 µM, first compound 0.01 µM): 12.9%
- viability, T/C (second compound 0.0316 µM, first compound 0.0316 µM): 11%
- viability, T/C (second compound 0.0316 µM, first compound 0.1 µM): 10.2%
- viability, T/C (second compound 0.0316 µM, first compound 0.316 µM): 11%
- viability, T/C (second compound 0.0316 µM, first compound 1 µM): 18.5%
- viability, T/C (second compound 0.1 µM, first compound 0.00316 µM): 10.1%
- viability, T/C (second compound 0.1 µM, first compound 0.01 µM): 10.5%
- viability, T/C (second compound 0.1 µM, first compound 0.0316 µM): 9.47%
- viability, T/C (second compound 0.1 µM, first compound 0.1 µM): 8.04%
- viability, T/C (second compound 0.1 µM, first compound 0.316 µM): 10.6%
- viability, T/C (second compound 0.1 µM, first compound 1 µM): 14.2%
- viability, T/C (second compound 0.316 µM, first compound 0.00316 µM): 9.47%
- viability, T/C (second compound 0.316 µM, first compound 0.01 µM): 8.55%
- viability, T/C (second compound 0.316 µM, first compound 0.0316 µM): 9.15%
- viability, T/C (second compound 0.316 µM, first compound 0.1 µM): 9.51%
- viability, T/C (second compound 0.316 µM, first compound 0.316 µM): 12.2%
- viability, T/C (second compound 0.316 µM, first compound 1 µM): 17.6%
- viability, T/C (second compound 1 µM, first compound 0.00316 µM): 9.7%
- viability, T/C (second compound 1 µM, first compound 0.01 µM): 11.8%
- viability, T/C (second compound 1 µM, first compound 0.0316 µM): 11.7%
- viability, T/C (second compound 1 µM, first compound 0.1 µM): 10.2%
- viability, T/C (second compound 1 µM, first compound 0.316 µM): 11.2%
- viability, T/C (second compound 1 µM, first compound 1 µM): 18.3%
